This note sets out measurements from ChEMBL document CHEMBL2074568, “Characterization of the transport properties of human multidrug resistance protein 7 (MRP7, ABCC10)” (Mol Pharmacol, 2003).

What all share (assay type): functional, cell membranes
What all share (parameters): scale not given: the % may be the effect or the level left

The target of assay [1] is T1, ATP-binding cassette sub-family C member 10 (Homo sapiens) (UniProt Q5T3U5).
T1 sequence (whole entry): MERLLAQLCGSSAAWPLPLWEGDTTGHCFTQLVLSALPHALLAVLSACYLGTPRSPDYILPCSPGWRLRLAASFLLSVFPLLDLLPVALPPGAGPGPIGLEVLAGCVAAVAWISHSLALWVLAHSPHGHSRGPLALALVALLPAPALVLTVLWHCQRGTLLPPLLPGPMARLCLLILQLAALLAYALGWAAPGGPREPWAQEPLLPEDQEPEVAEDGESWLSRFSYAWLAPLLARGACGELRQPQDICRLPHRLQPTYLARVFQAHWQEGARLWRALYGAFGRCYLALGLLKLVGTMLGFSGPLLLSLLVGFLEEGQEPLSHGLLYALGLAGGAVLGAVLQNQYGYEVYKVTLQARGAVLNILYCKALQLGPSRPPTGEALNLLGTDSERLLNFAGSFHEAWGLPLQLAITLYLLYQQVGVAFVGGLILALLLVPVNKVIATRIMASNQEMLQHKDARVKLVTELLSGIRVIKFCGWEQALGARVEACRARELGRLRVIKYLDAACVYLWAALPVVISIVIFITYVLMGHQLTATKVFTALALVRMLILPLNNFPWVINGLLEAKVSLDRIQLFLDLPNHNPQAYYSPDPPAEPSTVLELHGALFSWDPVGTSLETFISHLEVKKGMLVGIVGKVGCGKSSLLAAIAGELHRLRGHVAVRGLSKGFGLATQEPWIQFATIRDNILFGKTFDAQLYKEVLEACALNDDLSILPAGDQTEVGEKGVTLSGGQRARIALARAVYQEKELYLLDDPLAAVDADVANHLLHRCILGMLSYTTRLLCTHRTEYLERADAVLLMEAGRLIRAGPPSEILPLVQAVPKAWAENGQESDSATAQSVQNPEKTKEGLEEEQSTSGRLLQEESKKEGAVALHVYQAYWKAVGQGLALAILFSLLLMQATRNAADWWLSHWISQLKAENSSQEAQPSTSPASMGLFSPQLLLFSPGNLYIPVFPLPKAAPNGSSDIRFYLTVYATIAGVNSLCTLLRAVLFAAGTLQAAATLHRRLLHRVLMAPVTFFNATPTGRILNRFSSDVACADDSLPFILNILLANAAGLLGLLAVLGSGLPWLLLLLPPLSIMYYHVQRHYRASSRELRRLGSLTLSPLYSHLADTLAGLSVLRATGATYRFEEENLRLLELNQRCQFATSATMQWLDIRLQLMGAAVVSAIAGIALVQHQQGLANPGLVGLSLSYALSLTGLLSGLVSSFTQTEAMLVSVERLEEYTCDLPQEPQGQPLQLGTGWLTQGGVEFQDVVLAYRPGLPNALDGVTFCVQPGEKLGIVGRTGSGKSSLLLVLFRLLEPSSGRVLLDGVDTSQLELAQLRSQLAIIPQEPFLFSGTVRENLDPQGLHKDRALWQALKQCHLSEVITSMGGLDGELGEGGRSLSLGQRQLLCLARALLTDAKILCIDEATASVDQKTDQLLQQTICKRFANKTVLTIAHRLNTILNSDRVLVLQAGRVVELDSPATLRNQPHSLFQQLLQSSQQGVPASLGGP
Put plainly: TP_TRANSPORTER: inhibition of E217betaG uptake (E217betaG: 1 uM, Glycholithocholate-3-sulfate: 30 uM) in membrane vesicles from MRP7-expressing HEK293 cells. The settings on record: Membrane vesicle.

The target of assay [2] is T1, ATP-binding cassette sub-family C member 10 (Homo sapiens). Put plainly: TP_TRANSPORTER: inhibition of E217betaG uptake (E217betaG: 1 uM, Estradiol-3-glucuronide: 100 uM) in membrane vesicles from MRP7-expressing HEK293 cells. The settings on record: Membrane vesicle.
For assay [3] the target is unchanged. The assay is described as follows: TP_TRANSPORTER: inhibition of E217betaG uptake (E217betaG: 1 uM, Vincristine: 30 uM) in membrane vesicles from MRP7-expressing HEK293 cells. The settings on record: Membrane vesicle.
Assay [4] shares this target. Put plainly: TP_TRANSPORTER: inhibition of E217betaG uptake (E217betaG: 1 uM, Sildefafil:100uM) in membrane vesicle from MRP7-expressing HEK293 cells.
Assay [5] has the same target. Put plainly: TP_TRANSPORTER: inhibition of E217betaG uptake (E217betaG: 1 uM, DNP-SG:10uM) in membrane vesicles from MRP7-expressing HEK293 cells. The settings on record: Membrane vesicle.
Assay [6] shares this target. The assay is described as follows: TP_TRANSPORTER: inhibition of E217betaG uptake (E217betaG: 1 uM, Zaprinast: 100uM) in membrane vesicles from MRP7-expressing HEK293 cells. The settings on record: Membrane vesicle.
Assay [7] has the same target. The assay is described as follows: TP_TRANSPORTER: inhibition of E217betaG uptake (E217betaG: 1 uM, 17alpha-Ethynyl-17beta-Estradiol: 100 uM) in membrane vesicles from MRP7-expressing HEK293 cells. The settings on record: Membrane vesicle.
For assay [8] the target is unchanged. Put plainly: TP_TRANSPORTER: inhibition of E217betaG uptake (E217betaG: 1 uM, Verapamil: 100 uM) in membrane vesicles from MRP7-expressing HEK293 cells. To be noted: Membrane vesicle.
The target is the same in assay [9]. Put plainly: TP_TRANSPORTER: inhibition of E217betaG uptake (E217betaG: 1 uM, Doxorubicin: 30 uM) in membrane vesicles from MRP7-expressing HEK293 cells. The settings on record: Membrane vesicle.
The target is the same in assay [10]. The assay is described as follows: TP_TRANSPORTER: inhibition of E217betaG uptake (E217betaG: 1 uM, LTC4:1uM) in membrane vesicles from MRP7-expressing HEK293 cells. The settings on record: Membrane vesicle.
The target is the same in assay [11]. The assay is described as follows: TP_TRANSPORTER: inhibition of E217betaG uptake (E217betaG: 1 uM, 16alpha,17beta-Estriol 3-(beta-D-glucuronide): 100 uM) in membrane vesicles from MRP7-expressing HEK293 cells. To be noted: Membrane vesicle.
Assay [12] has the same target. Put plainly: TP_TRANSPORTER: inhibition of E217betaG uptake (E217betaG: 1 uM, 16alpha,17beta-Estriol 16-(beta-D-glucuronide): 100 uM) in membrane vesicles from MRP7-expressing HEK293 cells. The settings on record: Membrane vesicle.
Assay [13] shares this target. The assay is described as follows: TP_TRANSPORTER: inhibition of E217betaG uptake (E217betaG: 1 uM, Sulfinpyrazone:30uM) in membrane vesicles from MRP7-expressing HEK293 cells. The settings on record: Membrane vesicle.
Assay [14] has the same target. Put plainly: TP_TRANSPORTER: inhibition of E217betaG uptake (E217betaG: 1 uM, Glycocholate: 100uM) in membrane vesicles from MRP7-expressing HEK293 cells. The settings on record: Membrane vesicle.
For assay [15] the target is unchanged. The assay is described as follows: TP_TRANSPORTER: inhibition of E217betaG uptake (E217betaG: 1 uM, Taxol: 30 uM) in membrane vesicles from MRP7-expressing HEK293 cells. The settings on record: Membrane vesicle.
For assay [16] the target is unchanged. The assay is described as follows: TP_TRANSPORTER: inhibition of E217betaG uptake (E217betaG: 1 uM, beta-Estradiol: 100 uM) in membrane vesicles from MRP7-expressing HEK293 cells. To be noted: Membrane vesicle.
Assay [17] has the same target. The assay is described as follows: TP_TRANSPORTER: inhibition of E217betaG uptake (E217betaG: 1 uM, VP-16: 30 uM) in membrane vesicles from MRP7-expressing HEK293 cells. The settings on record: Membrane vesicle.
Assay [18] has the same target. Put plainly: TP_TRANSPORTER: inhibition of E217betaG uptake (E217betaG: 1 uM, 16alpha,17beta-Estriol 3-sulfate: 100 uM) in membrane vesicles from MRP7-expressing HEK293 cells. The settings on record: Membrane vesicle.
Assay [19] has the same target. Put plainly: TP_TRANSPORTER: inhibition of E217betaG uptake (E217betaG: 1 uM, Trequinsin: 100 uM) in membrane vesicles from MRP7-expressing HEK293 cells. The settings on record: Membrane vesicle.
For assay [20] the target is unchanged. The assay is described as follows: TP_TRANSPORTER: inhibition of E217betaG uptake (E217betaG: 1 uM, E2 3SO4 17betaG: 100uM) in membrane vesicles from MRP7-expressing HEK293 cells. The settings on record: Membrane vesicle.
The target is the same in assay [21]. Put plainly: TP_TRANSPORTER: inhibition of E217betaG uptake (E217betaG: 1 uM, MTX:100uM) in membrane vesicles from MRP7-expressing HEK293 cells. The settings on record: Membrane vesicle.

On to `C[C@H](CCC(=O)NCC(=O)O)[C@H]1CC[C@H]2[C@@H]3CC[C@@H]4C[C@H](OS(=O)(=O)O)CC[C@]4(C)[C@H]3CC[C@]12C`, for which the Activity in [1] is 41.8%.

On to `C[C@]12CC[C@@H]3c4ccc(O[C@@H]5O[C@H](C(=O)O)[C@@H](O)[C@H](O)[C@H]5O)cc4CC[C@H]3[C@@H]1CC[C@@H]2O`, for which the Activity in assay [2] was 60.1%.

As to `CC[C@]1(O)C[C@H]2CN(CCc3c([nH]c4ccccc34)[C@@](C(=O)OC)(c3cc4c(cc3OC)N(C=O)[C@H]3[C@@](O)(C(=O)OC)[C@H](OC(C)=O)[C@]5(CC)C=CCN6CC[C@]43[C@@H]65)C2)C1`, the Activity in assay [3] is 18.4%.

Consider `CCCc1nn(C)c2c(=O)[nH]c(-c3cc(S(=O)(=O)N4CCN(C)CC4)ccc3OCC)nc12`, for which the Activity in assay [4] is 41%.

As for `N[C@@H](CCC(=O)N[C@H](CSc1ccc([N+](=O)[O-])cc1[N+](=O)[O-])C(=O)NCC(=O)O)C(=O)O`, in assay [5], the Activity is 46.4%.

Consider `CCCOc1ccccc1-c1nc2[nH]nnc2c(=O)[nH]1`, for which the Activity in assay [6] was 48.3%.

`C#C[C@]1(O)CC[C@H]2[C@@H]3CCc4cc(O)ccc4[C@H]3CC[C@@]21C`: the Activity in assay [7] was 51.4%.

With `COc1ccc(CCN(C)CCCC(C#N)(c2ccc(OC)c(OC)c2)C(C)C)cc1OC` (stereo unspecified), in assay [8], the Activity is 62.3%.

For `COc1cccc2c1C(=O)c1c(O)c3c(c(O)c1C2=O)C[C@@](O)(C(=O)CO)C[C@@H]3O[C@H]1C[C@H](N)[C@H](O)[C@H](C)O1`, the Activity in assay [9] was 18.2%.

Consider `CCCCC/C=C\C\C=C/C=C/C=C/[C@@H](SC[C@@H](NC(=O)CC[C@H](N)C(=O)O)C(=O)NCC(=O)O)[C@@H](O)CCCC(=O)O`, for which the Activity in assay [10] is 40.4%.

`C[C@]12CC[C@@H]3c4ccc(O[C@@H]5O[C@H](C(=O)O)[C@@H](O)[C@H](O)[C@H]5O)cc4CC[C@H]3[C@@H]1C[C@@H](O)[C@@H]2O`: the Activity in assay [11] is 58.5%.

Take `C[C@]12CC[C@@H]3c4ccc(O)cc4CC[C@H]3[C@@H]1C[C@@H](O[C@@H]1O[C@H](C(=O)O)[C@@H](O)[C@H](O)[C@H]1O)[C@@H]2O`: the Activity in assay [12] is 53%.

Consider `O=C1C(CC[S+]([O-])c2ccccc2)C(=O)N(c2ccccc2)N1c1ccccc1` (stereo unspecified), for which the Activity in assay [13] is 39.5%.

On to `C[C@H](CCC(=O)NCC(=O)O)[C@H]1CC[C@H]2[C@@H]3[C@H](O)C[C@@H]4C[C@H](O)CC[C@]4(C)[C@H]3C[C@H](O)[C@]12C`, for which the Activity in assay [14] is 58.4%.

With `CC(=O)O[C@H]1C(=O)[C@@]2(C)[C@H]([C@H](OC(=O)c3ccccc3)[C@]3(O)C[C@H](OC(=O)[C@H](O)[C@@H](NC(=O)c4ccccc4)c4ccccc4)C(C)=C1C3(C)C)[C@]1(OC(C)=O)CO[C@@H]1C[C@@H]2O`, the Activity in assay [15] is 22.1%.

For the compound `C[C@]12CC[C@@H]3c4ccc(O)cc4CC[C@H]3[C@@H]1CC[C@@H]2O`, in assay [16], the Activity was 60.7%.

Regarding `COc1cc([C@@H]2c3cc4c(cc3[C@@H](O[C@@H]3O[C@@H]5CO[C@@H](C)O[C@H]5[C@H](O)[C@H]3O)[C@H]3COC(=O)[C@H]23)OCO4)cc(OC)c1O`, the Activity in assay [17] was 49.5%.

As for `C[C@]12CC[C@@H]3c4ccc(OS(=O)(=O)O)cc4CC[C@H]3[C@@H]1C[C@@H](O)[C@@H]2O`, the Activity in assay [18] was 49.4%.

Take `COc1cc2c(cc1OC)-c1c/c(=N\c3c(C)cc(C)cc3C)n(C)c(=O)n1CC2`: the Activity in [19] was 44.3%.

As for `C[C@]12CC[C@@H]3c4ccc(OS(=O)(=O)O)cc4CC[C@H]3[C@@H]1CC[C@@H]2O[C@@H]1O[C@H](C(=O)O)[C@@H](O)[C@H](O)[C@H]1O`, the Activity in assay [20] is 45.1%.

Regarding `CN(Cc1cnc2nc(N)nc(N)c2n1)c1ccc(C(=O)N[C@@H](CCC(=O)O)C(=O)O)cc1`, in assay [21], the Activity is 74%.
